1 compound from patent US11759435B2, “Dihydrochalcone derivatives influencing inflammatory states” (SYMRISE AG, priority 2016, dated 2023) can be followed below.

For this test, the system named is IL-8 release by HGF-1 cells. Kind of test: Anti-inflammatory action in HGF-1 cells: IL-8 release after PG-LPS stimulation (Example TS1). Particulars: Homo sapiens, co-incubation with 10 μg/ml PG-LPS, 6 h, % IL-8 release vs PG-LPS control, read-out: IL-8 T/C [%]. It counts as cell-based. As to the method:
Anti-inflammatory action in human gingival fibroblastic cells (HGF-1)
DMEM containing 10% FBS, 1% penicillin/streptomycin and 4% glutamine was used as the medium. For determination of the anti-inflammatory action the cells were incubated with 10 μg/ml PG-LPS for 6 hrs. […] In each case 4 samples with two technical replicates were measured. In addition to this control the cells were co-incubated with
(a) 10 μg/ml PG-LPS and also with
After incubation the cell culture medium was transferred into an Eppendorf reaction vessel and at 4° C. for 10 min subjected to centrifugation (1000×g) in order to separate the cell debris. The supernatant was stored at −80° C. until analysis.

Each structure is given as a SMILES string.

As to `O=C(CCc1ccc(O)cc1)c1c(O)cc(O)cc1O` [Compound 4], the activity at 1 µM (HGF1, 1 μM test compound) is 106%. In addition, the activity at 100 µM (HGF1, 100 μM test compound) was found to be 50%.
